Measurements from PMC11665983, “Inhibition of CFTR-mediated intestinal chloride secretion by nornidulin: Cellular mechanisms and anti-secretory efficacy in human intestinal epithelial cells and human colonoids” (PLOS ONE, 2024).

Target: cystic fibrosis transmembrane conductance regulator (CFTR) (Homo sapiens, UniProt P13569)
Assay: CPT-cAMP-stimulated apical chloride current in basolaterally permeabilized T84 monolayers (endogenous CFTR); genistein-stimulated current also inhibited (IC50 […])
Type: cell-based

Sequence of cystic fibrosis transmembrane conductance regulator (CFTR) (P13569 whole entry): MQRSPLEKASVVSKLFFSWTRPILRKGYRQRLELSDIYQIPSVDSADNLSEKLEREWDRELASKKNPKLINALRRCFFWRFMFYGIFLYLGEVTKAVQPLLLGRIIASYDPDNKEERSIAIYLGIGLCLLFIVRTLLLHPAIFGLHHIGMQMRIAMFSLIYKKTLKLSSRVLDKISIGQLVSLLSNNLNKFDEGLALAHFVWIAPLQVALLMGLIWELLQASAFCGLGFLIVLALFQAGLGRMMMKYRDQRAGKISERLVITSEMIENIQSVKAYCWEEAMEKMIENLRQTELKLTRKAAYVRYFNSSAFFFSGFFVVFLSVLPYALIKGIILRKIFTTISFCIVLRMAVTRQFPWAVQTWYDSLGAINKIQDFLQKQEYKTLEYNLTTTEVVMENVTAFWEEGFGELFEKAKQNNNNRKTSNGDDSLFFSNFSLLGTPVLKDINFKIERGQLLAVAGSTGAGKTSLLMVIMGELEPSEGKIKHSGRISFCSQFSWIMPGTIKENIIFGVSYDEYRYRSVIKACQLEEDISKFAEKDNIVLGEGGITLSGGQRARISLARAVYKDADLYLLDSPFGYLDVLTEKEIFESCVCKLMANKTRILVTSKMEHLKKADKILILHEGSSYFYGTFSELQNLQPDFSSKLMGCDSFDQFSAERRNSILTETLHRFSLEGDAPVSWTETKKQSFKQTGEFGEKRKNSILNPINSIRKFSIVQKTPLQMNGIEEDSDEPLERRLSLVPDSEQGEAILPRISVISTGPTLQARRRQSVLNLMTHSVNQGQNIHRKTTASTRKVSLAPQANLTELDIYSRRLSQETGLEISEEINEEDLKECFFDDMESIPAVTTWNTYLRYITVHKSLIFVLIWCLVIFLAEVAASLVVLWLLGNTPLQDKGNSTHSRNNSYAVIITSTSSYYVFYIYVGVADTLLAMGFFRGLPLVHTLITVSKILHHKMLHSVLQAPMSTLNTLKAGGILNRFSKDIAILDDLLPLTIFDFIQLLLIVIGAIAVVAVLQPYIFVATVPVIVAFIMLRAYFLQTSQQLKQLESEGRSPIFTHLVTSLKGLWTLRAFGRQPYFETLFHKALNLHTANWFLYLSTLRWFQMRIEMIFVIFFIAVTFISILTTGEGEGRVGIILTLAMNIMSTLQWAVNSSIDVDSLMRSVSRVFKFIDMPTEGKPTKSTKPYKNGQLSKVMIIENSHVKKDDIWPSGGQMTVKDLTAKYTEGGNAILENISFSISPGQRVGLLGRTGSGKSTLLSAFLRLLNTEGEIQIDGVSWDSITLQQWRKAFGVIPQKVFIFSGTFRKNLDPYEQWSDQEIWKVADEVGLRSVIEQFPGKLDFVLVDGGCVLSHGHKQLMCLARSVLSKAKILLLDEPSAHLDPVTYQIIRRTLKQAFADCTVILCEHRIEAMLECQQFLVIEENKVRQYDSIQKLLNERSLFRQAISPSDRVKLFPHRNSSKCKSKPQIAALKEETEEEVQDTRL

IC50: 1.03 ± 0.13 µM
Structure (SMILES): C/C=C(\C)c1c(Cl)c(O)c(C)c2c1Oc1c(Cl)c(O)c(Cl)c(C)c1C(=O)O2 [N9, nornidulin]
